# According to ChEMBL document CHEMBL5053491, “Rational designed highly sensitive NQO1-activated near-infrared fluorescent probe combined with NQO1 substrates in vivo: An innovative strategy for NQO1-overexpressing cancer theranostics” (Eur J Med Chem, 2021):
# Experiments:
# [1] = target: NAD(P)H dehydrogenase [quinone] 1 (Homo sapiens) (UniProt P15559); test: Substrate activity at recombinant human NQO1 assessed as enzyme activity by measuring oxidation of NADPH incubated for 5 mins measured per micromol of NADPH by NADPH recycling assay
# NAD(P)H dehydrogenase [quinone] 1 (Homo sapiens), sequence (P15559 whole entry): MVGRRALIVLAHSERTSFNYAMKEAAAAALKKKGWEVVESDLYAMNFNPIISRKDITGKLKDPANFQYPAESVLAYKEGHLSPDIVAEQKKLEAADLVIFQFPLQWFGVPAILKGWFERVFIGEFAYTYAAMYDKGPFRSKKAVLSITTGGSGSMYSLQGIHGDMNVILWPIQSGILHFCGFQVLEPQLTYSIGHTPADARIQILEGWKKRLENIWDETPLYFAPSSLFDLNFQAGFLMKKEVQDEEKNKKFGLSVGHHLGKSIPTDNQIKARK
# [2] = Drug uptake in BALB/c nude mouse infected with human A549 cells at 5 mg/kg, iv measured upto 15 mins by fluorescence spectrophotometric analysis; type: ADME, organism-based; conditions: in vivo, 0.25 h
# [3] = Stability of compound in PBS at pH 4 to 9 assessed as compound remaining at 37 degree C measured after 24 hrs by HPLC analysis; type: physicochemical; conditions: buffer, pH 4, 24 h
# [4] = Stability of compound in human plasma assessed as compound remaining at 37 degree C measured after 24 hrs by HPLC analysis; type: ADME, cell-free
# [5] = Stability of compound in mouse plasma assessed as compound remaining at 37 degree C measured after 24 hrs by HPLC analysis; type: ADME, cell-free
# [6] = Stability of compound in rat plasma assessed as compound remaining at 37 degree C measured after 24 hrs by HPLC analysis; type: ADME, cell-free
# A549 [7] = test: Cytotoxicity against human A549 cells assessed as growth inhibition measured after 72 hrs by MTT assay; type: functional; design: scale not given: the % may be the effect or the level left
# [8] = Drug uptake in NQO1 rich human A549 cells at 10 uM incubated for 20 mins by confocal microscopy; type: ADME, cell-based; conditions: a549, 20 min
# [9] = Drug uptake in NQO1-deficient human NCI-H596 cells at 10 uM incubated for 20 mins by confocal microscopy; type: ADME, cell-based; conditions: nci-h596, 20 min
# [10] = Water solubility of compound by HPLC analysis; type: physicochemical
# A549 [11] = test: Antitumor activity against human A549 cells xenografted in BALB/c nude mouse assessed as fluorescence intensity at 30 mg/kg, ip administered for 21 days; type: functional; conditions: time 21 day
# A549 [12] = test: Antitumor activity against human A549 cells xenografted in BALB/c nude mouse assessed as tumor inhibition rate at 30 mg/kg, ip administered for 21 days; type: functional; design: scale not given: the % may be the effect or the level left; conditions: time 21 day
# A549 [13] = test: Antitumor activity against human A549 cells xenografted in BALB/c nude mouse assessed as tumor volume change at 30 mg/kg, ip administered for 21 days; type: functional; conditions: time 21 day
compound,measurement,setting,value
O=C(O)CCC1=CC(=O)c2ccccc2C1=O,Activity,[1],900 µmol/min
CC1=C(C)C(=O)C(C(C)(C)CC(=O)N(C)c2ccc(COC(=O)N3c4ccc(N(C)C)cc4Sc4cc(N(C)C)ccc43)cc2)=C(C)C1=O,Drug uptake,[2],Not Active
CC1=C(C(C)(C)CC(=O)N(C)c2ccc(COC(=O)N3c4ccc(N(C)C)cc4Sc4cc(N(C)C)ccc43)cc2)C(=O)c2ccccc2C1=O,Stability,[3],Stable
same,Stability,[4],Stable
same,Stability,[5],Stable
same,Stability,[6],Stable
same,Activity,A549 [7],>80%
same,Drug uptake,[8],Active
same,Drug uptake,[9],Not Active
same,solubility,[10],6.5 µg/mL
same,Drug uptake,[2],Active
same,Activity,A549 [11],75.6%
CC1(C)CCC2=C(O1)c1ccccc1C(=O)C2=O [LAPACHONE],Activity,A549 [12],67.7%
same,Activity,A549 [13],69.1%
Cc1cc2c(cc1C)-c1oc(CN3CCN(C)CC3)c(C)c1C(=O)C2=O,Activity,A549 [12],79.8%
same,Activity,A549 [13],77%
CC1=C(CCC(=O)O)C(=O)c2ccccc2C1=O,Activity,[1],1080 µmol/min
CC1=C(C(C)(C)CC(=O)O)C(=O)c2ccccc2C1=O,Activity,[1],1480 µmol/min
CC(C)(CC(=O)O)C1=CC(=O)c2ccccc2C1=O,Activity,[1],1220 µmol/min
CC1=C(C)C(=O)C(C(C)(C)CC(=O)O)=C(C)C1=O,Activity,[1],1070 µmol/min
O=c1[nH]cc(F)c(=O)[nH]1 [FLUOROURACIL],Activity,A549 [11],75.7%
